Columns and labels:
[1] = target: Cyclin-dependent kinase-like 3 (Homo sapiens) (UniProt Q8IVW4); assay: Selectivity interaction (KinomeScan (DiscoverX)) EUB0001079a CDKL3; conditions: at 1 µM
[2] = target: Histone-lysine N-methyltransferase, H3 lysine-36 specific (Homo sapiens) (UniProt Q96L73); assay: Selectivity interaction (PWWP, WD40, and Tudor domain panel (DSLS measurements, literature)) EUB0000270b NSD1
[3] = target: T1, Mitogen-activated protein kinase 12 (Homo sapiens) (UniProt P53778); assay: Selectivity interaction (ActivX KiNativ screen (kinase selectivity in THP-1 cell lysates)) EUB0000639a MAPK12; type: subcellular; conditions: lysate
T1 sequence (whole entry): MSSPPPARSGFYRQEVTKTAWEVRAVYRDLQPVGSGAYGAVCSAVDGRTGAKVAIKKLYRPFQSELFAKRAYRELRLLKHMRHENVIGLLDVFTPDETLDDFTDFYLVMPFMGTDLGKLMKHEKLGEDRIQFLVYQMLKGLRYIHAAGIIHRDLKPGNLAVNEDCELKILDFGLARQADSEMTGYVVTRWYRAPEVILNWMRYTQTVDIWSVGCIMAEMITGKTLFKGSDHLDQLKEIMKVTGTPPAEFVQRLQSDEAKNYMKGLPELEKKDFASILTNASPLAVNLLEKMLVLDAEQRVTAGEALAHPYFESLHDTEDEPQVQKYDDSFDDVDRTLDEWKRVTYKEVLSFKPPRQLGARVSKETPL

[4] = target: Receptor-interacting serine/threonine-protein kinase 3 (Homo sapiens) (UniProt Q9Y572); assay: Selectivity interaction (ActivX KiNativ screen (kinase selectivity in THP-1 cell lysates)) EUB0000639a RIPK3; type: subcellular; conditions: lysate
Receptor-interacting serine/threonine-protein kinase 3 (Homo sapiens), sequence (Q9Y572 whole entry, looked up): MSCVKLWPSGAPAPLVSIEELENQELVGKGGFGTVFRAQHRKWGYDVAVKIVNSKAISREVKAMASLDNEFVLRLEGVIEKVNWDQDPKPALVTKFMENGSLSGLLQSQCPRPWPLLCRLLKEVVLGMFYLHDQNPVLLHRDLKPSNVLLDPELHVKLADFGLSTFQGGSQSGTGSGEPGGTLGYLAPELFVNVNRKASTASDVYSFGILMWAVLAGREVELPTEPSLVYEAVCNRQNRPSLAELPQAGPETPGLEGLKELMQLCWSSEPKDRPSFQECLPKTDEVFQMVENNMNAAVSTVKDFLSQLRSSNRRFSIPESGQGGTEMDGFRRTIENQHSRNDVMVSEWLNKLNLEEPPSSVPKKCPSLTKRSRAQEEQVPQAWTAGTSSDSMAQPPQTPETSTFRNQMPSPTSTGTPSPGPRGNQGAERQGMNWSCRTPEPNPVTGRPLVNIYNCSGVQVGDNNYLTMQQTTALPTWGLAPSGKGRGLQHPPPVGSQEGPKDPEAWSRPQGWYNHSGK

[5] = target: RAF proto-oncogene serine/threonine-protein kinase (Homo sapiens) (UniProt P04049); conditions: at 10 µM
[6] = target: Mitogen-activated protein kinase 10 (Homo sapiens, UniProt P53779); assay: Selectivity interaction (KinomeScan (DiscoverX)) EUB0000092b MAPK10; conditions: at 10 µM
[7] = target: Leukocyte tyrosine kinase receptor (Homo sapiens, UniProt P29376); assay: Selectivity interaction (KinomeScan (DiscoverX)) EUB0000618a LTK; conditions: at 10 µM
[8] = target: Macrophage colony-stimulating factor 1 receptor (Homo sapiens) (UniProt P07333); assay: Selectivity interaction (KinomeScan (DiscoverX)) EUB0001619a CSF1R; conditions: at 1 µM
[9] = target: T2, Tyrosine-protein kinase Mer (Homo sapiens) (UniProt Q12866); assay: Selectivity interaction (Upstate Kinase Profiler service (Millipore)) EUB0000056c MERTK; conditions: at 1 µM
T2 sequence (whole entry): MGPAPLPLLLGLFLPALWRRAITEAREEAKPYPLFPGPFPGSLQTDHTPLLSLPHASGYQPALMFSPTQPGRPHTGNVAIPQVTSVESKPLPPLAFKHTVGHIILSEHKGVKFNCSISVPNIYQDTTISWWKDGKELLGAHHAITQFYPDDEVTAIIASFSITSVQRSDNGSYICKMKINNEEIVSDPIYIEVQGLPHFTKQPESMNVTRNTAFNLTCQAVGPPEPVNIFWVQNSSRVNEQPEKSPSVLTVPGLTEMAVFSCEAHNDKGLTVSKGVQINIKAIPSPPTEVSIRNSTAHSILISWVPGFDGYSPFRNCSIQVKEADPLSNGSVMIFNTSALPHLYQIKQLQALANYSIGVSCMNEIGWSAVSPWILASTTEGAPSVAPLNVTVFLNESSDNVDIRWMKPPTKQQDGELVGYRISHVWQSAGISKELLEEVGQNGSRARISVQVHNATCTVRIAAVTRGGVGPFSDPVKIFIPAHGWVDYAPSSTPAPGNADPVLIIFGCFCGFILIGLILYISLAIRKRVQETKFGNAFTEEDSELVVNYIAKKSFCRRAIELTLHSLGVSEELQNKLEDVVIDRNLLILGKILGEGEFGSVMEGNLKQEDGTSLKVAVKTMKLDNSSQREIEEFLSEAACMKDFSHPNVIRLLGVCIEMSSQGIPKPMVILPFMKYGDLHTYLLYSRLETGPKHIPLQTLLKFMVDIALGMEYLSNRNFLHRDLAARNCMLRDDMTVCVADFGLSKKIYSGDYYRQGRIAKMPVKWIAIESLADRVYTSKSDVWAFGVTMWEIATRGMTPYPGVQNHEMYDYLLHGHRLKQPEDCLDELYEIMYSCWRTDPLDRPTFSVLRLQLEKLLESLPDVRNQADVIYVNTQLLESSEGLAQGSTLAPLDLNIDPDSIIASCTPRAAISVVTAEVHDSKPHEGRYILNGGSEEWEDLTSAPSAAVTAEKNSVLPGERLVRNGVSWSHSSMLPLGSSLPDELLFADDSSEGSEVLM

[10] = target: Cyclin-dependent kinase 8 (Homo sapiens, UniProt P49336); assay: Selectivity interaction (KinomeScan (DiscoverX)) EUB0000655a CDK8; conditions: at 10 µM
[11] = target: Protein kinase C delta type (Homo sapiens) (UniProt Q05655); assay: Selectivity interaction (KinomeScan (DiscoverX)) EUB0000655a PRKCD; conditions: at 10 µM
[12] = target: Serine/threonine-protein kinase Chk2 (Homo sapiens) (UniProt O96017); assay: Selectivity interaction (SelectScreen profiling (Invitrogen)) EUB0000607a CHEK2; conditions: at 2 µM
Serine/threonine-protein kinase Chk2 (Homo sapiens), sequence (O96017 whole entry): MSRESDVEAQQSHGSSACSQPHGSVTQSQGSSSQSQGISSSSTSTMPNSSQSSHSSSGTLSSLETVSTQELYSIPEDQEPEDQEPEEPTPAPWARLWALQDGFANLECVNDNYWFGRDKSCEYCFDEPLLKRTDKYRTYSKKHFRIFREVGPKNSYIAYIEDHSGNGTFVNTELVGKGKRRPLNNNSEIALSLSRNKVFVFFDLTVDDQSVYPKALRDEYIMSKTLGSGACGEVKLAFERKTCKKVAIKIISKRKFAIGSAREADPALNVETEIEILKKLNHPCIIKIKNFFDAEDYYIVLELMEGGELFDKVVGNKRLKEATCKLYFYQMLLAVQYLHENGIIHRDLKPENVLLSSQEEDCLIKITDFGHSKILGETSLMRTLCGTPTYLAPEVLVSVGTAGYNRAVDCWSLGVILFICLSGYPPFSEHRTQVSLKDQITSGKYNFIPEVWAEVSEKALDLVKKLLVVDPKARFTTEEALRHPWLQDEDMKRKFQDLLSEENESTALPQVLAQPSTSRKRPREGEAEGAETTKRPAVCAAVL

[13] = target: T3, Aurora kinase A (Homo sapiens) (UniProt O14965); assay: Selectivity interaction (Kinase panel (Z-LYTE Assay)) EUB0001632a STK6; conditions: at 10 µM
T3 sequence (whole entry): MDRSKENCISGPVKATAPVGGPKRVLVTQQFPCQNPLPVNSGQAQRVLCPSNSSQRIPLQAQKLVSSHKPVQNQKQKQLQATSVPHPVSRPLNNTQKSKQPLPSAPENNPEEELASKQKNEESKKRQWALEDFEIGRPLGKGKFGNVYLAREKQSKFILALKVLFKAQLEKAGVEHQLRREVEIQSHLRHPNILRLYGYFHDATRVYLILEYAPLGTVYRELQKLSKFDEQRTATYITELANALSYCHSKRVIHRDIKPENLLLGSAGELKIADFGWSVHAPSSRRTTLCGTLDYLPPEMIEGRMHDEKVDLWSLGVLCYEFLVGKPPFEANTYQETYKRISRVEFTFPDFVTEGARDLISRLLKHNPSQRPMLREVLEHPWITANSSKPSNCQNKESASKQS

[14] = target: Mitogen-activated protein kinase kinase kinase 14 (Homo sapiens) (UniProt Q99558); assay: Selectivity interaction (ProQinase) EUB0000171b MAP3K14
Mitogen-activated protein kinase kinase kinase 14 (Homo sapiens), sequence (Q99558 whole entry, looked up): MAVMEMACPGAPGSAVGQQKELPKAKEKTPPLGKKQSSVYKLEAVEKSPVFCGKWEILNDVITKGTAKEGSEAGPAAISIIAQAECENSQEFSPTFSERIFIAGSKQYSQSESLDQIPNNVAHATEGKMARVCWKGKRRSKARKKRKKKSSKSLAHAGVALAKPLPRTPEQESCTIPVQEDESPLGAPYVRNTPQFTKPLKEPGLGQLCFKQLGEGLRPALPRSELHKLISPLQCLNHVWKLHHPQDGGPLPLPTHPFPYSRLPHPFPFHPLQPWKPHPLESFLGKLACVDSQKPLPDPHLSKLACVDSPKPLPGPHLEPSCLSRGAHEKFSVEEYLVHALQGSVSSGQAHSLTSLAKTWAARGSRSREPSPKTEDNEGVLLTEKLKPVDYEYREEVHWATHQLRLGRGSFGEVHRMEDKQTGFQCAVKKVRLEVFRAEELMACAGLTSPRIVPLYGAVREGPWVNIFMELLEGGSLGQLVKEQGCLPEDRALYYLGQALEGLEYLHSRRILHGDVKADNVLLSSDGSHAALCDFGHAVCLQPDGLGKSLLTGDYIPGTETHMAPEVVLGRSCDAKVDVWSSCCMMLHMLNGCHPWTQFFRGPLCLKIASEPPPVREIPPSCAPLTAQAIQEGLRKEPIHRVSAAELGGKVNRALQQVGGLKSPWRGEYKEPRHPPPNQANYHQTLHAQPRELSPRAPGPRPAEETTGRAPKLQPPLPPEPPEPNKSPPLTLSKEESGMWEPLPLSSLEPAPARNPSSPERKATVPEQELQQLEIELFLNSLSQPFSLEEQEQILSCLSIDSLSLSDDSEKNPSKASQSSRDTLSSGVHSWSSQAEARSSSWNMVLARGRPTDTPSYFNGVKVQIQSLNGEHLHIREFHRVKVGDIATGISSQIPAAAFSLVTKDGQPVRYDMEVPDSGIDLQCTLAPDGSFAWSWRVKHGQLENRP

Histone-lysine N-methyltransferase, H3 lysine-36 specific (Homo sapiens), sequence (Q96L73 whole entry, the tested form may be a part): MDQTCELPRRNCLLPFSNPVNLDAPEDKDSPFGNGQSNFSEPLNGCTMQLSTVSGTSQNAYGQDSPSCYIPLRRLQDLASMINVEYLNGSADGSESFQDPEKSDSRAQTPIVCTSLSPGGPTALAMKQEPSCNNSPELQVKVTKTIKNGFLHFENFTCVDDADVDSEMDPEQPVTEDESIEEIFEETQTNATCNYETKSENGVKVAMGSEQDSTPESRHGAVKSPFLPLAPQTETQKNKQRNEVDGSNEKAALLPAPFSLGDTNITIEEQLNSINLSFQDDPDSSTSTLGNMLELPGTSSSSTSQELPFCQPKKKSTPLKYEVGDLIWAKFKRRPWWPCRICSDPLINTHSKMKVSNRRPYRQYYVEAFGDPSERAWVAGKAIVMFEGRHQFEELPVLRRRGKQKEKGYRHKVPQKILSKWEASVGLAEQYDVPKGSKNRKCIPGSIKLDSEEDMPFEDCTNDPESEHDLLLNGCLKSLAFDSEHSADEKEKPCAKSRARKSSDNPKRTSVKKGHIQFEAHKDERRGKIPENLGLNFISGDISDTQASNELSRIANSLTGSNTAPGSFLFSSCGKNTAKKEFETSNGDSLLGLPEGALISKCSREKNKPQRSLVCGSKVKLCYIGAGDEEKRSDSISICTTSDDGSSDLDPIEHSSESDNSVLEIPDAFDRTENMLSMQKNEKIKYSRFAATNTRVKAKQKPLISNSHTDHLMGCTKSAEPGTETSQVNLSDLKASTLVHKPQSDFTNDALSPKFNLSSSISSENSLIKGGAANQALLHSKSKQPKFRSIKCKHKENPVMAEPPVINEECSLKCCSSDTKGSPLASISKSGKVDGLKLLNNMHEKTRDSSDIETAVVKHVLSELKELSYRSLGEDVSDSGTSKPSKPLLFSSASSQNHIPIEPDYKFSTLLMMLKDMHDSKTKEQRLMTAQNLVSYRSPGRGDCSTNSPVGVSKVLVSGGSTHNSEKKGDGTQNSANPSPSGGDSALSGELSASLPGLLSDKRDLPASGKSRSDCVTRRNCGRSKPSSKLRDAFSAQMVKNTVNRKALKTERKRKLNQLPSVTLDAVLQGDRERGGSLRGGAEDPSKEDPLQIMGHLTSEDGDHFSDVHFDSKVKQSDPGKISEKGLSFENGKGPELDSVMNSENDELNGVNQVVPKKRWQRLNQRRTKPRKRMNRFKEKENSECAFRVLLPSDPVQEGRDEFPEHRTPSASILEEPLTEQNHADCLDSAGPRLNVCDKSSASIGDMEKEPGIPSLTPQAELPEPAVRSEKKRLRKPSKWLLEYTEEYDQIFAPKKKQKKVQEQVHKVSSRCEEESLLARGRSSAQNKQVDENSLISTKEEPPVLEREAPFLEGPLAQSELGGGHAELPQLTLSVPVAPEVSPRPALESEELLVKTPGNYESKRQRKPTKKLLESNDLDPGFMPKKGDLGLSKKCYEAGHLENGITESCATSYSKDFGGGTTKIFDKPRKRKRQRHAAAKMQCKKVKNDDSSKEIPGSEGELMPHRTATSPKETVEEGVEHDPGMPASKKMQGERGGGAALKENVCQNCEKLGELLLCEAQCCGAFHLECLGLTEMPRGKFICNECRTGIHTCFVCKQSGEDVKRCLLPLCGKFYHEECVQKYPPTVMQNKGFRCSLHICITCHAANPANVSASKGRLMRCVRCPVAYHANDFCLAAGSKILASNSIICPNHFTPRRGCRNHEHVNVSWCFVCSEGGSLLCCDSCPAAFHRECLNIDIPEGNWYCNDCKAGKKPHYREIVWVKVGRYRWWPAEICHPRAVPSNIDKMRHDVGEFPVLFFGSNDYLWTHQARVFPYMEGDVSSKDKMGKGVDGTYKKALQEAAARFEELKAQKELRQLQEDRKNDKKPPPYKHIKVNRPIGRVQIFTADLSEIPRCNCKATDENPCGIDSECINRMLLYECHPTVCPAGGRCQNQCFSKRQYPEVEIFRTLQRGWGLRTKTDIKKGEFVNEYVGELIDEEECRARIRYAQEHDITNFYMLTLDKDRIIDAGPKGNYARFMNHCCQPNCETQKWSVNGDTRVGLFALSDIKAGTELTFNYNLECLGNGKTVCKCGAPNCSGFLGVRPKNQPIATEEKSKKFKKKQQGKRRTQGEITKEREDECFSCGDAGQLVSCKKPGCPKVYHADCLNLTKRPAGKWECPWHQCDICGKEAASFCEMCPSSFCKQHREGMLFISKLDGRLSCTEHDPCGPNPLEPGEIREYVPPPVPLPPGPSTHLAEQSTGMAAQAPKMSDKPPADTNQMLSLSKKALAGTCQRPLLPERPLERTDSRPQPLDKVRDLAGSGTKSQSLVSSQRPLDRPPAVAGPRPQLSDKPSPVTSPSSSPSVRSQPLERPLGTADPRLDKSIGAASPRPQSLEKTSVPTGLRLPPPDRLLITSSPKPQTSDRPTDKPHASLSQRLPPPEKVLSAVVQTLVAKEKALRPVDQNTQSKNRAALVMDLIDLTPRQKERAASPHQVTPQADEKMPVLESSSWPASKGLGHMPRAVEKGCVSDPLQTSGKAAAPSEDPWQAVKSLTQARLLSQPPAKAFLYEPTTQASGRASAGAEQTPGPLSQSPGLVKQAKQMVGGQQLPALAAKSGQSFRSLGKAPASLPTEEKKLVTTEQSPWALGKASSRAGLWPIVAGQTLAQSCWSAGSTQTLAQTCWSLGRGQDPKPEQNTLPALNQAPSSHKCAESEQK

`Nc1cnc(N2CCc3cc(S(=O)(=O)Nc4c(F)cc(Cl)cc4F)cc(N4CCCC4=O)c32)nc1` [TP-020n] was tested, and the % of control [1] was 100%.
In the case of `Cc1cc(CN)cc(C)c1-c1ncn(C)c1-c1cncn1C`, the dTagg [2] is reported as 0.1 K.
Work on `CC[C@@H]1[C@H](F)C(=O)N[C@@H]1COc1nccc2cc(C(N)=O)c(OC)cc12` [ZIMLOVISERTIB] yielded a % of inhibition ([3]; at 0.01 µM) of -4.4%, a % of inhibition ([3]; at 0.04 µM) of 6% and a % of inhibition ([3]; at 0.2 µM) of -3.6%. It also gave a % of inhibition ([3]; at 1 µM) of 7.4%, a % of inhibition ([3]; at 5 µM) of 20.3% and a % of inhibition ([4]; at 0.01 µM) of 3%. It also gave a % of inhibition ([4]; at 0.04 µM) of -0.8%, a % of inhibition ([4]; at 0.2 µM) of -4.3% and a % of inhibition ([4]; at 1 µM) of 8.9%. It also gave a % of inhibition ([4]; at 5 µM) of -8.6%.
`COCC(=O)NC/C=C/c1ccc2ncnc(Nc3ccc(Oc4ccc(C)nc4)c(C)c3)c2c1` [CP-724714] gave a % of control [5] of 100%.
Compound `CCC(=O)N1CCN(c2ccc(-n3c(=O)ccc4cnc5ccc(-c6cnc7ccccc7c6)cc5c43)cc2C(F)(F)F)CC1` has a % of control [6] of 31%.
For `O[C@H]1CC[C@H](Nc2ncc3nc(Nc4c(F)cc(F)cc4F)n([C@H]4CCOC4)c3n2)CC1`, the % of control [7] was 100%.
`N#Cc1cccc(-c2c[nH]c3ncnc(N4CCOCC4)c23)c1` showed a % of control [8] of 100%.
In the case of `Cc1ccc(-c2ccc3c(ccc4sc5c(c43)NC[C@@H](C)NC5=O)n2)cn1`, the % of inhibition [9] is reported as 97%.
`CN(C)CCOc1ccc(-c2nc(-c3ccncc3)c(-c3ccc4c(c3)CC/C4=N\O)[nH]2)cc1` showed a % of control [10] of 83% and a % of control [11] of 89%.
`CNC(=O)Nc1ccc(-c2nc(N3CC4CCC(C3)O4)c3cnn(C4CCC5(CC4)OCCO5)c3n2)cc1` gave a % of inhibition [12] of 3%.
`Cn1cc(-n2cnc3c(NCc4nc5cc(Cl)c(Cl)cc5[nH]4)nc(N4CCOCC4)nc32)cn1` gave a % of control [13] of 9.63%.
In the case of `C=CC(=O)Nc1cccc(C(=O)Nc2ccc(Nc3cc(-c4[nH]c(SC)nc4C)ccn3)cc2)c1`, the % of control ([14]; at 1 µM) is reported as 91% and the % of control ([14]; at 5 µM) is reported as 87%.

From ChEMBL document CHEMBL5465560, “Selectivity Literature for EUbOPEN Chemogenomic Library” (2024)
